Test results: US4797472A, “New peptide derivatives” (KabiVitrum AB, priority 1986, dated 1989)
Square brackets hold non-standard residues; d marks the D form. Peptide text beside a SMILES is read from it. * marks the point of attachment. pNA = O=[N+]([O-])c1ccc(N*)cc1; Ms = CS(=O)(=O)*

Key:
FXa human = target: T1, FXa human (Homo sapiens, UniProt P00742); test: Determination of kinetic constants for FXa human (plasma activated with RVV+CaCl2); format: biochemical; conditions: substrate 0.1-0.7 mmol/l, trisbuffer pH 7.0, I=0.25, polybrene, 37° C.
T1 construct: from tissue; host or cells: human plasma
Protocol: The kinetic data for the substrates are determined by measuring the initial velocity of hydrolysis (Vi) at different substrate concentrations (Si) and at constant enzyme concentrations (Eo). The binding constant (Km) and the maximum velocity (Vmax) are obtained in known manner from Lineweaver-Burk-plot, then the Kcat is calculated (Hemker H. C. loc. cit.)
The substrates in concentrations between 0.1-0.7 mmol/l (Si) are mixed with FXa human plasma and treated according to the method as described by Aurell; L., et al. (Perspectives in Hemostatis, Ed. Fareed J. et al, New York, Pergamon Press 1981, p. 382-388).
10 μl test plasma, control or standard and 200 μl trisbuffer solution (0.05 mol/l tris, pH 7.0, I=0.25 (NaCl)), polybrene (0.1 g/l) are mixed and incubated at 37° C. for 2-4 minutes. 200 μl substrate (37° C.) in concentrations between 0.1-0.7 mmol/l dissolved in trisbuffer solution prepared according to the above are added. The mixture is well stirred and within 30 seconds 200 μl RVV+CaCl2 (20°-25° C.) are added and the mixture is stirred. The absorbance change is measured at once in a spectrophotometer at 405 nm and 37° C.

Thrombin bovine = target: T2, Thrombin bovine (Bos taurus, UniProt P00735); test: Determination of thrombin sensitivity; format: biochemical; conditions: Thrombin bovine E0=1.3 nmol/l; substrate 0.1-0.4 mmol/l; trisbuffer pH 8.3, I=0.25, 37° C.
T2 construct: Thrombin bovine (KabiVitrum) with a constant concentration E0 =1.3 nmol/l; purchased KabiVitrum

T1 sequence (P00742 235-488 limits assumed): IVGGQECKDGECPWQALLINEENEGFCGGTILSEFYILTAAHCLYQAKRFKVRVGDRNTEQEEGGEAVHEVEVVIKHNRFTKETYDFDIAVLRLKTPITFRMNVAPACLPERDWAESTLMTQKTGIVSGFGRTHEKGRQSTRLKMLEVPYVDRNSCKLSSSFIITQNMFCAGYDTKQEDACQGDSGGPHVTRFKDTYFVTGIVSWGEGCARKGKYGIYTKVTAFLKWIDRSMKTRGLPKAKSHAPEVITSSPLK
T1 sequence (P00742 41-179 partner limits assumed): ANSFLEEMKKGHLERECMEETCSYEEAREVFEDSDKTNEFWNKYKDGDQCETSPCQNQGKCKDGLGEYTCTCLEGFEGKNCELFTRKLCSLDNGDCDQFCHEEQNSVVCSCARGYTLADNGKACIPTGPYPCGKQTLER

| Compound | Km (FXa human) [µM] | Km (Thrombin bovine) [µM] |
| --- | --- | --- |
| N=C(N)NCCC[C@H](NC(=O)CNC(=O)[C@@H](CCCNC(=N)N)NS(=O)(=O)Cc1ccccc1)C(=O)Nc1ccc([N+](=O)[O-])cc1 [Example 16, N^α --Bzls--D--Arg--Gly--Arg--pNA.2HCl] | 50 | 160 |
| CC(C)C[C@@H](NS(C)(=O)=O)C(=O)NCC(=O)N[C@@H](CCCNC(=N)N)C(=O)Nc1ccc([N+](=O)[O-])cc1 [CBS 31.39, CH3 SO2 --D--Leu--Gly--Arg--pNA.AcOH] (Ms-[dL]-Gly-Arg-pNA) | 1060 | 230 |
| COc1ccc(COC(=O)N[C@H](CCCNC(=N)N)C(=O)NCC(=O)N[C@@H](CCCNC(=N)N)C(=O)Nc2ccc([N+](=O)[O-])cc2)cc1 [Example 9, N^α --Moz--D--Arg--Gly--Arg--pNA.2HCl] | 210 | 73 |
